System: haploid corn seedlings (SAM)
Experiment: Example 3: serial (submerged then unsubmerged) centrifugation with colchicine, survival and doubling success
Assay type: in vivo
Settings: for DE / Fert. Success / Initial Survival / Poll. Success: 1000 ppm colchicine, submerged 50 g 3 min then unsubmerged 335 g 3 min
Description: Seeds of 5 different F1 hybrid-derived haploid corn lines were randomly-selected and germinated in a greenhouse. The resulting seedlings were removed from soil or growth media at the V1-V3 growth stage and the soil or growth media rinsed from the plants with water. Seedlings were then aligned and assembled along with several rods in a bundled PCS similar to what is shown in FIG. 9 and a plant treatment solution comprising 1000 ppm colchicine was poured into the container such that the solution submerged the SAM of each plant and then the entire sample was centrifuged at 50 g for 3 min while the SAMs remained submerged in the plant treatment agent.
Following the first centrifugation, the plant treatment solution was decanted and the seedlings subjected to an unsubmerged centrifugation at 335 g for 3 min.
Following the second centrifugation, the plants were removed from the centrifugation container and rinsed with water to remove any remaining colchicine solution, and then recovered and tended in a light, humidity, and temperature-controlled greenhouse for several days before being transplanted to a nursery greenhouse.
The control sample received no colchicine exposure, but was otherwise handled identically as the experimental samples. During the subsequent growth of the plants, the initial survival, pollination success, fertilization success, final survival, and doubling efficiency was determined within each sample as described in Example 2.

COc1cc2c(c(OC)c1OC)-c1ccc(OC)c(=O)cc1[C@@H](NC(C)=O)CC2 [colchicine]
DE (Ave: of five lines): 72% | Fert. Success (Ave: of five lines): 94% | Initial Survival (Ave: of five lines): 93% | Poll. Success (Ave: of five lines): 85% | DE (line F1004): 57% | Fert. Success (line F1004): 100% | Initial Survival (line F1004): 93% | Poll. Success (line F1004): 62% | DE (line F1045): 75% | Fert. Success (line F1045): 100% | Initial Survival (line F1045): 100% | Poll. Success (line F1045): 75% | DE (line F1095): 80% | Fert. Success (line F1095): 92% | Initial Survival (line F1095): 100% | Poll. Success (line F1095): 87% | DE (line F1118): 60% | Fert. Success (line F1118): 86% | Initial Survival (line F1118): 70% | Poll. Success (line F1118): 100% | DE (line F1900): 90% | Fert. Success (line F1900): 90% | Initial Survival (line F1900): 100% | Poll. Success (line F1900): 100% | individuals that produced pollen and silks (minimum over all five inbred samples receiving the experimental treatment): at least 62% | increase in overall DE as compared to controls (samples receiving serial centrifugation with 1000 ppm colchicine vs controls): 67%
